The values below come from patent US20070105877A1, “Pyrazolopyrimidines” (priority 2003, published 2007).

Structures are written as SMILES.

In the assay the target is PDE-5 (UniProt O76074). Description: In vitro PDE inhibitory activity against PDE5 (batch method or scintillation proximity assay). In kind it is biochemical, human or rabbit. To be noted: representative preferred compounds. An excerpt: The compounds of the invention are inhibitors of cyclic guanylate monophosphate (cGMP)-specific phosphodiesterase type 5 (PDE-5 inhibitors).
In particular, cGMP-specific PDE5 and cGMP-inhibited cAMP PDE3 can be obtained from human corpus cavernosum tissue, human platelets or rabbit platelets; cGMP-stimulated PDE2 was obtained from human corpus cavernosum; calcium/calmodulin (Ca/CAM)-dependent PDE1 from human cardiac ventricle; cAMP-specific PDE4 from human skeletal muscle; and photoreceptor PDE6 from bovine retina. Phosphodiesterases 7-11 can be generated from full length human recombinant clones transfected into SF9 cells.
In summary, for the scintillation proximity assay the effect of PDE inhibitors was investigated by assaying a fixed amount of enzyme in the presence of varying inhibitor concentrations and low substrate, (cGMP or cAMP in a 3:1 ratio unlabelled to [^3H]-labeled at a concentration of ˜⅓ Km or less) such that IC50≅Kl. The final assay volume was made up to 100 μl with assay buffer [20 mM Tris-HCl pH 7.4, 5 mM MgCl2, 1 mg/ml bovine serum albumin]. Reactions were initiated with enzyme, incubated for 30-60 min at 30° C. to give <30% substrate turnover and terminated with 50 μl yttrium silicate SPA beads (containing 3 mM of the respective unlabelled cyclic nucleotide for PDEs 9 and 11).
A general note: In a scintillation proximity assay essentially only radioactivity close to the scintillant gives light.
`CCNC(=O)c1nn(CCOCC)c2c(Nc3cc(C)ccn3)nc(NCC)nc12` [Example 8, 1-(2-ethoxyethyl)-N-ethyl-5-(ethylamino)-7-(4-methylpyridin-2-ylamino)-1H-pyrazolo[4,3-d]pyrimidine-3-carboxamide] yielded an IC50 of 0.333 nM.

As to `CCOCCn1nc(C(=O)NC)c2nc(N(C)C)nc(Nc3cc(C)ccn3)c21` [Example 14, 5-(dimethylamino)-1-(2-ethoxyethyl)-N-methyl-7-(4-methylpyridin-2-ylamino)-1H-pyrazolo[4,3-d]pyrimidine-3-carboxamide], half-maximal inhibition (IC50) was put at 0.26 nM. As for `CCOCCn1nc(C(=O)NCCNC)c2nc(N(C)C)nc(Nc3cc(C)ccn3)c21` [Example 16], the figure is 0.4 nM.

`CCOCCn1nc(C(=O)NCCN(C)C)c2nc(N(C)C)nc(Nc3cc(C)ccn3)c21` [Example 17, 5-(dimethylamino)-N-(2-(dimethylamino)ethyl)-1-(2-ethoxyethyl)-7-(4-methylpyridin-2-ylamino)-1H-pyrazolo[4,3-d]pyrimidine-3-carboxamide]: the IC50 came to 0.24 nM.

In turn, `CCOCCn1nc(C(=O)NC2CCNCC2)c2nc(N(C)C)nc(Nc3cc(C)ccn3)c21` [Example 18] registered a half-maximal inhibitory concentration (IC50) of 0.06 nM. As for `CCOCCn1nc(C(=O)NCCOC)c2nc(N(C)C)nc(Nc3cc(C)ccn3)c21` [Example 19, 5-(dimethylamino)-1-(2-ethoxyethyl)-N-(2-methoxyethyl)-7-(4-methylpyridin-2-yl-amino)-1H-pyrazolo[4,3-d]pyrimidine-3-carboxamide], the figure is 0.09 nM; as for `CCOCCn1nc(C(=O)N[C@H](C)C(=O)O)c2nc(N(C)C)nc(Nc3cc(C)ccn3)c21` [Example 22, (2R)-2-{[5-(dimethylamino)-1-(2-ethoxyethyl)-7-(4-methylpyridin-2-ylamino)-1H-pyrazolo[4,3-d]pyrimidine-3-carbonyl]amino}propionic acid], 0.02 nM; as for `CCOCCn1nc(C(=O)NCCC(=O)O)c2nc(N(C)C)nc(Nc3cc(C)ccn3)c21` [Example 23, 3-{[5-(dimethylamino)-1-(2-ethoxyethyl)-7-(4-methylpyridin-2-ylamino)-1H-pyrazolo[4,3-d]pyrimidine-3-carbonyl]amino}propionic acid], 0.04 nM. The result for `CCOCCn1nc(C(=O)NC)c2nc(N3CCN[C@H](C)C3)nc(Nc3cc(C)ccn3)c21` [Example 30, 1-(2-ethoxyethyl)-N-methyl-5-((3R)-3-methylpiperazin-1-yl)-7-(4-methylpyridin-2-yl-amino)-1H-pyrazolo[4,3-d]pyrimidine-3-carboxamide] reads 1.65 nM. As for `CCNC(=O)c1nn(CCOCC)c2c(Nc3cc(C)ccn3)nc(N3CCN[C@H](C)C3)nc12` [Example 32], the figure is 0.73 nM. For the compound `CCNc1nc(Nc2cc(C)ccn2)c2c(n1)c(C(=O)NC)nn2CCOCC` [Example 50, 1-(2-Ethoxyethyl)-5-(ethylamino)-N-methyl-7-(4-methylpyridin-2-ylamino)-1H-Pyrazolo[4,3-d]pyrimidine-3-carboxamide], the IC50 came to 1.31 nM. As for `CCOCCn1nc(C(=O)NCCOC)c2nc(NC)nc(Nc3cc(C)ccn3)c21` [Example 56, 1-(2-ethoxyethyl)-N-(2-methoxyethyl)-5-(methylamino)-7-(4-methylpyridin-2-ylamino)-1H-pyrazolo[4,3-d]pyrimidine-3-carboxamide], the figure is 1.63 nM; as for `CCOCCn1nc(C(=O)NCCO)c2nc(N(C)C)nc(Nc3cc(C)ccn3)c21` [Example 58, 5-(dimethylamino)-1-(2-ethoxyethyl)-N-(2-hydroxyethyl)-7-(4-methylpyridin-2-yl-amino)-1H-pyrazolo[4,3-d]pyrimidine-3-carboxamide], 0.13 nM; as for `CCNc1nc(Nc2cc(C)ccn2)c2c(n1)c(C(=O)NCCOC)nn2CCOCC` [Example 60, 1-(2-ethoxyethyl)-5-(ethylamino)-N-(2-methoxyethyl)-7-(4-methylpyridin-2-ylamino)-1H-pyrazolo[4,3-d]pyrimidine-3-carboxamide], 0.57 nM. The result for `CCOCCn1nc(C(=O)NC)c2nc(N(C)CCO)nc(Nc3cc(C)ccn3)c21` [Example 61] reads 0.12 nM; that for `CCOCCn1nc(C(=O)NC)c2nc(NCCOC)nc(Nc3cc(C)ccn3)c21` [Example 62, 1-(2-ethoxyethyl)-5-((2-methoxyethyl)amino)-N-methyl-7-(4-methylpyridin-2-ylamino)-1H-pyrazolo[4,3-d]pyrimidine-3-carboxamide], 1.88 nM. The result for `CCOCCn1nc(C(=O)NC)c2nc(N3CCN[C@H](C)C3)nc(NC3CCCCC3)c21` [Example 71, 7-(cyclohexylamino)-1-(2-ethoxyethyl)-N-methyl-5-((3R)-3-methylpiperazin-1-yl)-1H-pyrazolo[4,3-d]pyrimidine-3-carboxamide] reads 2.95 nM; that for `CCOCCn1nc(C(=O)NC)c2nc(N(C)[C@H]3CCN(C)C3)nc(Nc3cc(C)ccn3)c21` [Example 73, 1-(2-Ethoxyethyl)-N-methyl-5-[N-methyl-N-((3S)-1-methylpyrrolidin-3-yl)amino]-7-(4-methylpyridin-2-ylamino)-1H-pyrazolo[4,3-d]pyrimidine-3-carboxamide], 0.42 nM.

In general, IC50 refers to the midpoint of a concentration-inhibition curve. A low value points to greater potency.
